Assay results as given in ChEMBL document CHEMBL5370560, “Isolation of Anti-SARS-CoV-2 Natural Products Extracted from Mentha canadensis and the Semi-synthesis of Antiviral Derivatives” (J Nat Prod, 2023).
Active and inactive are the calls of the source. No cut-off for these calls is given here.

Legend:
SARS-CoV-2 [1] = assay: (§1) Antiviral activity against SARS-CoV-2 Omicron BA.1 infected in African green monkey Vero E6 cells assessed as inhibition of plaque formation at 50 uM incubated for 1 hr followed by virus-drug mixture washout and further addition of media without compound for 5 to 7 days by crystal violet staining based assay relative to control; type: functional, Severe acute respiratory syndrome coronavirus 2; conditions: for inhibition at 50 µM: Severe acute respiratory syndrome coronavirus 2, Omicron BA.1, Vero C1008
SARS-CoV-2 [2] = assay: as §1, with “Delta” for “Omicron BA.1”; type: functional, Severe acute respiratory syndrome coronavirus 2; conditions: for inhibition at 50 µM: Severe acute respiratory syndrome coronavirus 2, Delta, Vero C1008
SARS-CoV-2 [3] = assay: as §1, with “Delta” for “Omicron BA.1”, “100” for “50”; type: functional; conditions: Severe acute respiratory syndrome coronavirus 2, Delta, Vero C1008
SARS-CoV-2 [4] = assay: as §1, with “100” for “50”; type: functional; conditions: Severe acute respiratory syndrome coronavirus 2, Omicron BA.1, Vero C1008
SARS-CoV-2 [5] = assay: as §1, with “Delta” for “Omicron BA.1”, “5” for “50”; type: functional, Severe acute respiratory syndrome coronavirus 2; conditions: for inhibition at 5 µM: Severe acute respiratory syndrome coronavirus 2, Delta, Vero C1008
[6] = biological target: Spike glycoprotein (Severe acute respiratory syndrome coronavirus 2) (UniProt P0DTC2); assay: Binding affinity to NTA chip immobilised recombinant SARS-CoV-2 Delta spike protein RBD at 50 uM measured for 500 secs by SPR analysis; conditions: time 500.0 sec
SARS-CoV-2 [7] = assay: (§2) Antiviral activity against SARS-CoV-2 Delta infected in African green monkey Vero E6 cells assessed as inhibition of plaque formation incubated for 1 hr followed by virus-drug mixture washout and further addition of media without compound for 5 to 7 days by crystal violet staining based assay; type: functional, organism-based; conditions: Severe acute respiratory syndrome coronavirus 2, Delta, Vero C1008
SARS-CoV-2 [8] = assay: as §1, with “assay” for “assay relative to control”; type: functional, organism-based; conditions: Severe acute respiratory syndrome coronavirus 2
SARS-CoV-2 [9] = assay: as §1, with “0.5” for “50”; type: functional, Severe acute respiratory syndrome coronavirus 2; conditions: for inhibition at 0.5 µM: Severe acute respiratory syndrome coronavirus 2, Omicron BA.1, Vero C1008
SARS-CoV-2 [10] = assay: (§3) Antiviral activity against SARS-CoV-2 Omicron BA.1 infected in African green monkey Vero E6 cells assessed as inhibition of plaque formation incubated for 1 hr followed by virus-drug mixture washout and further addition of media without compound for 5 to 7 days by crystal violet staining based assay; type: functional, organism-based; conditions: Severe acute respiratory syndrome coronavirus 2, Omicron BA.1, Vero C1008
SARS-CoV-2 [11] = assay: as §1, with “Delta” for “Omicron BA.1”, “0.5” for “50”; type: functional, Severe acute respiratory syndrome coronavirus 2
SARS-CoV-2 [12] = assay: as §1, with “5” for “50”; type: functional, Severe acute respiratory syndrome coronavirus 2; conditions: for inhibition at 5 µM: Severe acute respiratory syndrome coronavirus 2, Omicron BA.1, Vero C1008
[13] = Cytotoxicity against African green monkey Vero E6 cells assessed as reduction in cell viability incubated for 48 hrs by MTT assay; type: toxicity, cell-based, Vero C1008; conditions: chlorocebus sabaeus
SARS-CoV-2 [14] = assay: as §2, with “formation at 50 uM” for “formation”; type: functional, organism-based; conditions: Severe acute respiratory syndrome coronavirus 2
SARS-CoV-2 [15] = assay: as §2, with “formation at 5 uM” for “formation”; type: functional, organism-based; conditions: Severe acute respiratory syndrome coronavirus 2
SARS-CoV-2 [16] = assay: as §3, with “formation at 0.5 uM” for “formation”; type: functional, organism-based; conditions: Severe acute respiratory syndrome coronavirus 2
SARS-CoV-2 [17] = assay: as §2, with “formation at 0.5 uM” for “formation”; type: functional, organism-based; conditions: Severe acute respiratory syndrome coronavirus 2
SARS-CoV-2 [18] = assay: Antiviral activity against SARS-CoV-2 infected in African green monkey Vero E6 cells preincubated for 1 hr followed by addition of fresh medium containing compounds and measured after 24 hrs by qRT-PCR analysis; type: functional, organism-based; conditions: Severe acute respiratory syndrome coronavirus 2, Vero C1008
SARS-CoV-2 [19] = assay: (§4) Synergistic antiviral activity against SARS-CoV-2 Delta infected in Vero E6 cells assessed as reduction in plaque formation by measuring combination index at ED50 incubated for 1 hr in presence of ivermectin followed by virus-drug mixture washout and further addition of media without compound for 5 to 7 days by Chou-Talalay method; type: functional, Severe acute respiratory syndrome coronavirus 2
SARS-CoV-2 [20] = assay: as §4, with “Omicron BA.1” for “Delta”; type: functional, Severe acute respiratory syndrome coronavirus 2
SARS-CoV-2 [21] = assay: Synergistic antiviral activity against SARS-CoV-2 Delta infected in Vero E6 cells incubated for 1 hr in presence of ivermectin followed by virus-drug mixture washout and further addition of media without compound for 5 to 7 days by crystal violet staining based assay; type: functional, organism-based; conditions: Severe acute respiratory syndrome coronavirus 2
SARS-CoV-2 [22] = assay: Synergistic antiviral activity against SARS-CoV-2 Omicron BA.1 infected in Vero E6 cells incubated for 1 hr in presence of ivermectin followed by virus-drug mixture washout and further addition of media without compound for 5 to 7 days by crystal violet staining based assay; type: functional, organism-based; conditions: Severe acute respiratory syndrome coronavirus 2

Compound `O=C(/C=C/c1ccc(O)c(O)c1)O[C@H](Cc1ccc(O)c(O)c1)C(=O)O` [ROSMARINIC ACID] has an inhibition at 50 µM (SARS-CoV-2 [1]) of 33%, an inhibition at 50 µM (SARS-CoV-2 [2]) of 7% and an inhibition at 100 µM (SARS-CoV-2 [3]) of 9%. For the same compound, the inhibition at 100 µM (SARS-CoV-2 [4]) was 40%.
In the case of `CCCCCCCCCCCCNC(=O)[C@@H](Cc1ccc(O)c(O)c1)OC(=O)/C=C/c1ccc(O)c(O)c1`, the “inhibition (INH)” value (SARS-CoV-2 [5]) is reported as 78%, the Activity [6] is reported as “inactive” and the IC50 (SARS-CoV-2 [7]) is reported as 0.93 µM. For the same compound, the inhibition (SARS-CoV-2 [8]) was “inactive”, the “inhibition (INH)” value (SARS-CoV-2 [9]) was 17% and the IC50 (SARS-CoV-2 [10]) was 0.77 µM. For the same compound, the “inhibition (INH)” value (SARS-CoV-2 [11]) was 15%, the “inhibition (INH)” value (SARS-CoV-2 [12]) was 54% and the CC50 at 48 h [13] was 17.5 µM. The inhibition (SARS-CoV-2 [14]) was “inactive”.
In the case of `COCCNC(=O)[C@@H](Cc1ccc(O)c(O)c1)OC(=O)/C=C/c1ccc(O)c(O)c1`, the inhibition at 50 µM (SARS-CoV-2 [1]) is reported as 29%, the inhibition at 50 µM (SARS-CoV-2 [2]) is reported as 23% and the inhibition (SARS-CoV-2 [15]) is reported as “inactive”. For the same compound, the inhibition (SARS-CoV-2 [16]) was “inactive”, the inhibition (SARS-CoV-2 [17]) was “inactive” and the inhibition at 5 µM (SARS-CoV-2 [12]) was 13%. It also gave a CC50 at 48 h [13] greater than 100 µM.
With `O=C(/C=C/c1ccc(O)c(O)c1)O[C@H](Cc1ccc(O)c(O)c1)C(=O)NCc1ccco1` the inhibition at 50 µM (SARS-CoV-2 [1]) was 66%, the inhibition at 50 µM (SARS-CoV-2 [2]) was 20% and the inhibition (SARS-CoV-2 [15]) was “inactive”. For the same compound, the inhibition (SARS-CoV-2 [16]) was “inactive”, the inhibition (SARS-CoV-2 [17]) was “inactive” and the inhibition at 5 µM (SARS-CoV-2 [12]) was 29%. It also gave a CC50 at 48 h [13] greater than 100 µM.
`O=C(/C=C/c1ccc(O)c(O)c1)O[C@H](Cc1ccc(O)c(O)c1)C(=O)NCCCCCCCl` showed an inhibition at 50 µM (SARS-CoV-2 [1]) of 66%, an inhibition at 50 µM (SARS-CoV-2 [2]) of 75% and an inhibition at 5 µM (SARS-CoV-2 [5]) of 18%. The inhibition at 0.5 µM (SARS-CoV-2 [9]) was 14%, the inhibition (SARS-CoV-2 [17]) was “inactive” and the inhibition at 5 µM (SARS-CoV-2 [12]) was 29%. The CC50 at 48 h [13] was greater than 100 µM.
In the case of `O=C(/C=C/c1ccc(O)c(O)c1)O[C@H](Cc1ccc(O)c(O)c1)C(=O)N1CCOCC1`, the inhibition at 50 µM (SARS-CoV-2 [1]) is reported as 23%, the inhibition at 50 µM (SARS-CoV-2 [2]) is reported as 8% and the inhibition (SARS-CoV-2 [15]) is reported as “inactive”. For the same compound, the inhibition (SARS-CoV-2 [16]) was “inactive”, the inhibition (SARS-CoV-2 [17]) was “inactive” and the inhibition at 5 µM (SARS-CoV-2 [12]) was 19%. For the same compound, the CC50 at 48 h [13] was greater than 100 µM.
With `O=C(/C=C/c1ccc(O)c(O)c1)O[C@H](Cc1ccc(O)c(O)c1)C(=O)N1CCCCC1` the inhibition at 50 µM (SARS-CoV-2 [1]) was 67%, the inhibition at 50 µM (SARS-CoV-2 [2]) was 33% and the inhibition (SARS-CoV-2 [15]) was “inactive”. The inhibition at 0.5 µM (SARS-CoV-2 [9]) was 24%, the inhibition (SARS-CoV-2 [17]) was “inactive” and the inhibition at 5 µM (SARS-CoV-2 [12]) was 38%. For the same compound, the CC50 at 48 h [13] was greater than 100 µM.
Work on `O=C(O)/C=C/c1ccc(O)c(O)c1` [CAFFEIC ACID] yielded an inhibition at 50 µM (SARS-CoV-2 [1]) of 36%, an inhibition at 50 µM (SARS-CoV-2 [2]) of 23% and an inhibition at 100 µM (SARS-CoV-2 [3]) of 29%. The inhibition at 100 µM (SARS-CoV-2 [4]) was 42%.
`O=C(O)[C@H](O)Cc1ccc(O)c(O)c1` showed an inhibition at 50 µM (SARS-CoV-2 [1]) of 40%, an inhibition at 50 µM (SARS-CoV-2 [2]) of 19% and an inhibition at 100 µM (SARS-CoV-2 [3]) of 19%. It also gave an inhibition at 100 µM (SARS-CoV-2 [4]) of 40% and an EC50 (SARS-CoV-2 [18]) of 0.97 µM.
For `O=C(/C=C/c1ccc(O)c(O)c1)O[C@H](Cc1ccc(O)c(O)c1)C(=O)NCc1ccccc1`, the inhibition at 50 µM (SARS-CoV-2 [1]) was 58%, the inhibition at 50 µM (SARS-CoV-2 [2]) was 57% and the inhibition at 5 µM (SARS-CoV-2 [5]) was 18%. For the same compound, the inhibition (SARS-CoV-2 [16]) was “inactive”, the inhibition (SARS-CoV-2 [17]) was “inactive” and the inhibition at 5 µM (SARS-CoV-2 [12]) was 17%. For the same compound, the CC50 at 48 h [13] was greater than 100 µM.
With `C#CCNC(=O)[C@@H](Cc1ccc(O)c(O)c1)OC(=O)/C=C/c1ccc(O)c(O)c1` the inhibition at 50 µM (SARS-CoV-2 [1]) was 26%, the inhibition at 50 µM (SARS-CoV-2 [2]) was 30% and the inhibition (SARS-CoV-2 [15]) was “inactive”. For the same compound, the inhibition at 0.5 µM (SARS-CoV-2 [9]) was 17%, the inhibition (SARS-CoV-2 [17]) was “inactive” and the inhibition at 5 µM (SARS-CoV-2 [12]) was 17%. For the same compound, the CC50 at 48 h [13] was greater than 100 µM.
For `CCc1cccc(NC(=O)[C@@H](Cc2ccc(O)c(O)c2)OC(=O)/C=C/c2ccc(O)c(O)c2)c1`, the “inhibition (INH)” value (SARS-CoV-2 [1]) was 100%, the “inhibition (INH)” value (SARS-CoV-2 [2]) was 100% and the “inhibition (INH)” value (SARS-CoV-2 [5]) was 53%. For the same compound, the Activity [6] was “inactive”, the IC50 (SARS-CoV-2 [7]) was 12.6 µM and the “inhibition (INH)” value (SARS-CoV-2 [9]) was 24%. For the same compound, the IC50 (SARS-CoV-2 [10]) was 2.7 µM, the “inhibition (INH)” value (SARS-CoV-2 [11]) was 14% and the “inhibition (INH)” value (SARS-CoV-2 [12]) was 57%. The CC50 at 48 h [13] was 50.7 µM.
With `COC(=O)[C@@H](Cc1ccc(O)c(O)c1)OC(=O)/C=C/c1ccc(O)c(O)c1` [METHYL ROSMARINATE] the Activity [6] was “inactive”, the IC50 (SARS-CoV-2 [7]) was 88.9 µM and the CI (SARS-CoV-2 [19]) was 1.74. The CI (SARS-CoV-2 [20]) was 1.67, the IC50 (SARS-CoV-2 [10]) was 57 µM and the CC50 at 48 h [13] was greater than 1000 µM. For the same compound, the inhibition (SARS-CoV-2 [14]) was “Active”.
With `COc1cc(C(=O)O)cc(OC)c1O` the Activity (SARS-CoV-2 [21]) was “inactive”, the Activity (SARS-CoV-2 [22]) was “inactive” and the inhibition (SARS-CoV-2 [14]) was “Active”.
With `COc1c(O)c(OC)c2oc(-c3ccc(O)cc3)cc(=O)c2c1O` the inhibition (SARS-CoV-2 [14]) was “Active”.
With `CCCCCCNC(=O)[C@@H](Cc1ccc(O)c(O)c1)OC(=O)/C=C/c1ccc(O)c(O)c1` the inhibition at 50 µM (SARS-CoV-2 [1]) was 77%, the inhibition at 50 µM (SARS-CoV-2 [2]) was 95% and the inhibition at 5 µM (SARS-CoV-2 [5]) was 23%. The inhibition at 0.5 µM (SARS-CoV-2 [9]) was 21%, the inhibition (SARS-CoV-2 [17]) was “inactive” and the inhibition at 5 µM (SARS-CoV-2 [12]) was 21%. The CC50 at 48 h [13] was greater than 100 µM.
